Our source for the remaining binding values is patent publication US11208412B2 (DAEGU-GYEONGBUK MEDICAL INNOVATION FOUNDATION, priority 2017, dated 2021).

What all share (assay): Kinase selectivity, DiscoverX scanMAX Kinase assay panel (% control)
What all share (type): binding

Test [1] deals with T1, kinases of the scanMAX Kinase assay panel (Homo sapiens, UniProt P00519, F317I).
T1 construct: purchased DiscoverX Co. (contract measurement) scanMAX Kinase assay panel
The following applies: 1 uM. The essentials: (§1)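 Compounds were tested at 1 uM (in DMSO) against each panel kinase. % control was calculated as (compound − positive control)/(negative control − positive control)×100, where the positive control gives 0% and DMSO gives 100%. Activity toward a kinase was called at % control <35%.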

In test [2] the target is T2, kinases of the scanMAX Kinase assay panel (Homo sapiens, UniProt P00519, H396P).
T2 construct: purchased DiscoverX Co. (contract measurement) scanMAX Kinase assay panel
The following applies: 1 uM. The essentials: as §1

In test [3] the target is T3, kinases of the scanMAX Kinase assay panel (Homo sapiens, UniProt Q8WU08).
T3 construct: purchased DiscoverX Co. (contract measurement) scanMAX Kinase assay panel
T3 sequence (Q8WU08 whole entry): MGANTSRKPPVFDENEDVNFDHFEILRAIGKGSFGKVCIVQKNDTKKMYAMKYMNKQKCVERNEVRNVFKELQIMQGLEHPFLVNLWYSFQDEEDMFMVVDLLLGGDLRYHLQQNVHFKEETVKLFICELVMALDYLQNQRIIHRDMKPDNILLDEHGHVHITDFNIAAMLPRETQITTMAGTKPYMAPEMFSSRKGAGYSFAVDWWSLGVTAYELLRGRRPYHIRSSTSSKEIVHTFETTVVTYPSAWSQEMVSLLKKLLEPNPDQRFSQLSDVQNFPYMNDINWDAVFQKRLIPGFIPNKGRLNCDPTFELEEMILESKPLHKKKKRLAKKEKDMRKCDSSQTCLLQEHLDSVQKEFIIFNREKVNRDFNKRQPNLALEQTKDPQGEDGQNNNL
The following applies: kinase YANK1; 1 uM in DMSO. The essentials: as §1

Test [4] has as its target T4, kinases of the scanMAX Kinase assay panel (Homo sapiens, UniProt O00750).
T4 construct: purchased DiscoverX Co. (contract measurement) scanMAX Kinase assay panel
The following applies: PIK3C2B; 1 uM. In short, it runs like this: as §1

For test [5], the target named is T5, kinases of the scanMAX Kinase assay panel (Homo sapiens, UniProt P07949, V804L).
T5 construct: purchased DiscoverX Co. (contract measurement) scanMAX Kinase assay panel
T5 sequence (P07949 29-1114 V804L): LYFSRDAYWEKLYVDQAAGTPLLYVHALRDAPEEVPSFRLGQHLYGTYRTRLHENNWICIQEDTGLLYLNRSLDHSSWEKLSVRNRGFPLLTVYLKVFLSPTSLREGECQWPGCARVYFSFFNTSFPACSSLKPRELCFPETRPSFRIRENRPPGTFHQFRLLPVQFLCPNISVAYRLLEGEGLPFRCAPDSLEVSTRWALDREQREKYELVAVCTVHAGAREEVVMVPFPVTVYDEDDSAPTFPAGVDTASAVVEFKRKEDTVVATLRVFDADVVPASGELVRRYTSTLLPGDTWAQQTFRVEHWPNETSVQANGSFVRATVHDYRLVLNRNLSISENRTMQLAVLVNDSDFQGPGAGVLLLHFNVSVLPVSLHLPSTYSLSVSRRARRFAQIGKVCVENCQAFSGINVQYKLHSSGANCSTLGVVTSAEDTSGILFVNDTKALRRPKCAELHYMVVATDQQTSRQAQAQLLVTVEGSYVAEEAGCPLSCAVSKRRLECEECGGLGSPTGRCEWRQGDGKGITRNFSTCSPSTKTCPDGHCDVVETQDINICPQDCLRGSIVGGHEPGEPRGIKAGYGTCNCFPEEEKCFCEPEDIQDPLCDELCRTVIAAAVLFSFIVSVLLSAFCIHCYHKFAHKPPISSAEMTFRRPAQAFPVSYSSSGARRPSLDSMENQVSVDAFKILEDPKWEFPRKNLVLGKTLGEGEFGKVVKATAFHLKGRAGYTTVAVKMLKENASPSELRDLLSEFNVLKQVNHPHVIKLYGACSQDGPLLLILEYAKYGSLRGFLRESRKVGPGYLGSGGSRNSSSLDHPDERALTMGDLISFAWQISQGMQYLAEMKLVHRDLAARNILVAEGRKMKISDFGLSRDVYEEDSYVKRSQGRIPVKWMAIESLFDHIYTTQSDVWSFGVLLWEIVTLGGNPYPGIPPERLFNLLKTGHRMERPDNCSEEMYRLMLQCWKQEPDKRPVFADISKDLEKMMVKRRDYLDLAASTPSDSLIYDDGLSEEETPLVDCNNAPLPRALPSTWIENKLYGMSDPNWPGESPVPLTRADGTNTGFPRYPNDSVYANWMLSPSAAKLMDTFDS
The following applies: kinase RET(V804L); 1 uM in DMSO. In short, it runs like this:
as §1

Test [6] deals with T6, kinases of the scanMAX Kinase assay panel (Homo sapiens, UniProt Q9HBY8).
T6 construct: purchased DiscoverX Co. (contract measurement) scanMAX Kinase assay panel
T6 sequence (Q9HBY8 1-367): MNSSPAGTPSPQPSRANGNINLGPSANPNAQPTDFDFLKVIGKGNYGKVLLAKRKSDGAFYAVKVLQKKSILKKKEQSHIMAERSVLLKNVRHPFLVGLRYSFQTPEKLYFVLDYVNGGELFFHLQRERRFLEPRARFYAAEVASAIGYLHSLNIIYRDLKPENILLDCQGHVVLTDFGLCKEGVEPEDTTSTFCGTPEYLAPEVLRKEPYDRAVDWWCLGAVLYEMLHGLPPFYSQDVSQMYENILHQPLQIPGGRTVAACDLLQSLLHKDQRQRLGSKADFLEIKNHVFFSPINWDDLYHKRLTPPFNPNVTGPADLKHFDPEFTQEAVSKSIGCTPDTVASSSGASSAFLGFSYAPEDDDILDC
The following applies: kinase SGK2; 1 uM in DMSO. In short, it runs like this: as §1

For test [7], the target named is T7, kinases of the scanMAX Kinase assay panel (Homo sapiens, UniProt Q8WTQ7).
T7 construct: purchased DiscoverX Co. (contract measurement) scanMAX Kinase assay panel
T7 sequence (Q8WTQ7 1-553): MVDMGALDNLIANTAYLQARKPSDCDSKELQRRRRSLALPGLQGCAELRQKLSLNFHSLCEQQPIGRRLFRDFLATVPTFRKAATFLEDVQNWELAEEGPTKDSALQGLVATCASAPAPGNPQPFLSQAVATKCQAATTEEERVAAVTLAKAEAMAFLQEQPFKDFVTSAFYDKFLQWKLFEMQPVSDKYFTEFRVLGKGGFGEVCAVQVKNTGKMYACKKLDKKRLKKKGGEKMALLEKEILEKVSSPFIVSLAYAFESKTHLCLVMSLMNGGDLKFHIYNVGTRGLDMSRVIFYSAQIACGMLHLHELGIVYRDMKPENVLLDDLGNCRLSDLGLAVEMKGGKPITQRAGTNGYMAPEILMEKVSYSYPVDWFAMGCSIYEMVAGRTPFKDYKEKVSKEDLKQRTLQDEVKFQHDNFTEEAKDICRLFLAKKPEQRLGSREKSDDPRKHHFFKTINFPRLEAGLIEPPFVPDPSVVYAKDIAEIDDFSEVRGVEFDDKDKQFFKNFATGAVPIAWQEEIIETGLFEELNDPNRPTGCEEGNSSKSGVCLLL
The following applies: GRK7; 1 uM. The essentials:
as §1

Test [8] deals with T8, kinases of the scanMAX Kinase assay panel (Homo sapiens, UniProt Q6ZWH5).
T8 construct: purchased DiscoverX Co. (contract measurement) scanMAX Kinase assay panel
T8 sequence (Q6ZWH5 1-1172): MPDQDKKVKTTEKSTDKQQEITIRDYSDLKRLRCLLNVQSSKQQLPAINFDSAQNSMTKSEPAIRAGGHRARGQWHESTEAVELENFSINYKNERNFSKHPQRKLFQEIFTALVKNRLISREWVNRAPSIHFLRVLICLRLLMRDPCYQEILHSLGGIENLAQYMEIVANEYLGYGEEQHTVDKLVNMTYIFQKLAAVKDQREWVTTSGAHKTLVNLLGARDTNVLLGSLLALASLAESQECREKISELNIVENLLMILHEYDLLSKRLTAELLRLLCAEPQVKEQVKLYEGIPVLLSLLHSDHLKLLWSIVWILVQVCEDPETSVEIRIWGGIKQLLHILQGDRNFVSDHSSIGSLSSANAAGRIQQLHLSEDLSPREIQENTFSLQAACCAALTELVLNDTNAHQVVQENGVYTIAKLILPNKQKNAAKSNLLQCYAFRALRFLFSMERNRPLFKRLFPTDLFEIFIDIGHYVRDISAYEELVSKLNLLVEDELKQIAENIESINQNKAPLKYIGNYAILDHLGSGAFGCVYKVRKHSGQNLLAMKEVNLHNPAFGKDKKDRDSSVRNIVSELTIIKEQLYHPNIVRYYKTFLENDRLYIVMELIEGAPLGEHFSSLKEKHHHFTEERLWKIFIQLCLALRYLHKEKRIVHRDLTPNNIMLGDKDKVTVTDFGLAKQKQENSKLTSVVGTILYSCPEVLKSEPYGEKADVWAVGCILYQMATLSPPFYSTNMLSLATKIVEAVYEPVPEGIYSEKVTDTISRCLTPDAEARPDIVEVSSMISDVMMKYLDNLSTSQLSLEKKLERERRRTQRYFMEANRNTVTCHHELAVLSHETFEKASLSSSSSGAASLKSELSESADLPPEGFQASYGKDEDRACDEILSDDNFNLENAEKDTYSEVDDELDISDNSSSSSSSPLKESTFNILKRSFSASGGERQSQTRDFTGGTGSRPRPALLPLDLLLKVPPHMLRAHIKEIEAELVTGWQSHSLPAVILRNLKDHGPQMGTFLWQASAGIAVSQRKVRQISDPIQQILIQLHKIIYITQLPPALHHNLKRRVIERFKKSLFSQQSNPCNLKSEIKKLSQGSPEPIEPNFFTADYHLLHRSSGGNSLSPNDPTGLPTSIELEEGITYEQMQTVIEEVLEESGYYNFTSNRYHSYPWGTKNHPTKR
The following applies: NEK10; 1 uM. In short, it runs like this: as §1

T4 sequence (O00750 whole entry): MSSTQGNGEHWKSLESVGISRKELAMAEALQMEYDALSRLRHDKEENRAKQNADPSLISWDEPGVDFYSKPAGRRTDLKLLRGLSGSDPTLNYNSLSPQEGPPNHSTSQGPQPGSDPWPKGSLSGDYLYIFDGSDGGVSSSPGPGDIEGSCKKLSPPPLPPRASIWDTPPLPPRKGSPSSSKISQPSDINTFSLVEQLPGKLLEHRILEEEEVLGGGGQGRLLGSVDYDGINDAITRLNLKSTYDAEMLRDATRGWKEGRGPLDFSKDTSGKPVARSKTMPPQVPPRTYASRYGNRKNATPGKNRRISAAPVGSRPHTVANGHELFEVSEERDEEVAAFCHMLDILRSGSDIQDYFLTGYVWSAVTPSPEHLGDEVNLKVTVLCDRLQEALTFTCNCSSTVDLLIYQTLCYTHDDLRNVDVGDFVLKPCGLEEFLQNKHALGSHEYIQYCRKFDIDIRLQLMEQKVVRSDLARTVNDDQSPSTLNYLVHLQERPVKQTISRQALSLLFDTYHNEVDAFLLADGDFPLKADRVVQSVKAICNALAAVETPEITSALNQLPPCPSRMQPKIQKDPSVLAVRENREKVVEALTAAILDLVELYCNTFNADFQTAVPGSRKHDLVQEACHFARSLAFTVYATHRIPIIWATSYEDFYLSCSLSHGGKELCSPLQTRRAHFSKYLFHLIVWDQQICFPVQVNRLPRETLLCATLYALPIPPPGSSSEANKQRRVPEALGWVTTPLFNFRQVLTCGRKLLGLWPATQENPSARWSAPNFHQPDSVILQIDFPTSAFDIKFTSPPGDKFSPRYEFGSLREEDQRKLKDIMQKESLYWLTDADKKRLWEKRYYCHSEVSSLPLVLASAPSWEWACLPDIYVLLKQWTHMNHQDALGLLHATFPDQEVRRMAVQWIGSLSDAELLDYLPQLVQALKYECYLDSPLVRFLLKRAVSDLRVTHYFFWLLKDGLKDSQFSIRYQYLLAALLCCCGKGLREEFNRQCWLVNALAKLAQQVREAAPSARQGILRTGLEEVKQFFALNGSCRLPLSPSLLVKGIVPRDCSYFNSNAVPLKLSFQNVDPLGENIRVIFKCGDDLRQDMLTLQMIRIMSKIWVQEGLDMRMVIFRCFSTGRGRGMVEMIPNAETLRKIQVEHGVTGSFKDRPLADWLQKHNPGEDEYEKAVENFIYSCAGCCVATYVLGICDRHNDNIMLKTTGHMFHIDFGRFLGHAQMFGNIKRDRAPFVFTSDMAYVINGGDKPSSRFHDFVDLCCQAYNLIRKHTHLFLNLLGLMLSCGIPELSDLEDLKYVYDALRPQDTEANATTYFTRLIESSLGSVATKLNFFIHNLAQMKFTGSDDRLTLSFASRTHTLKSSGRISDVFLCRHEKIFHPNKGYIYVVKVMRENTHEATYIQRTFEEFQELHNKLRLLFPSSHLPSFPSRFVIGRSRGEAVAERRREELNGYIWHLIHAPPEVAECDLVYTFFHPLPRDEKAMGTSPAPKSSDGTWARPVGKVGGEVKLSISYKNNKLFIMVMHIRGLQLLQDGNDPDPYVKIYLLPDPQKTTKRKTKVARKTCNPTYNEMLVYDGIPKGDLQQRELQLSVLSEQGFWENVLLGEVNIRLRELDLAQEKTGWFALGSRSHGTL

For the compound `CC1(Nc2nc(Nc3cnn([C@H]4CCN(C5COC5)C[C@@H]4F)c3Cl)nc3[nH]cc(C#N)c23)CC1` [Example 52, 2-((5-chloro-1-((3S,4S)-3-fluoro-1-(oxetane-3-yl)piperidine-4-yl)-1H-pyrazole-4-yl)amino)((1-methylcyclopropyl)amino)-7H-pyrrolo[2,3-d]pyrimidine-5-carbonitrile], the remaining binding at 1 µM in test [1] (ABL1(F317I)-nonphosphorylated) was 25%; in test [1] (ABL1(F317I)-phosphorylated), 7.6%; in test [2] (ABL1(H396P)-nonphosphorylated) it was 0.55%; in test [2] (ABL1(H396P)-phosphorylated) it was 0.9%; in test [3] it was 88%; in test [4] it was 91%. The remaining binding at 1 µM is 0% in test [5], 74% in test [6], 65% in test [7] and 0.95% in test [8].

`CCNc1nc(Nc2ccc(C(=O)N3CCC(N4CCOCC4)CC3)cc2OC)nc2[nH]cc(C(F)(F)F)c12` [Example 104, (4-((4-(ethylamino)-5-(trifluoromethyl)-7H-pyrrolo[2,3-d]pyrimidine-2-yl)amino)-3-methoxyphenyl)(4-morpholinopiperidine-1-yl)methanone]: the remaining binding at 1 µM in test [1] (ABL1(F317I)-nonphosphorylated) turned out to be 56%; in test [1] (ABL1(F317I)-phosphorylated) it was 29%; in test [2] (ABL1(H396P)-nonphosphorylated), 96%; in test [2] (ABL1(H396P)-phosphorylated), 74%; in test [3], 82%; in test [4], 75%. Besides, the remaining binding at 1 µM stood at 89% in test [5], 100% in test [6], 78% in test [7] and 100% in test [8].

As to `CNc1nc(Nc2ccc(C(=O)N3CCOCC3)cc2OC)nc2[nH]cc(C#N)c12` [Example 1, 2-((2-methoxy-4-(morpholine-4-carbonyl)phenyl)amino)-4-(methylamino)-7H-pyrrolo[2,3-d]pyrimidine-5-carbonitrile], the remaining binding at 1 µM in test [1] (ABL1(F317I)-nonphosphorylated) worked out at 99%; in test [1] (ABL1(F317I)-phosphorylated) it was 54%; in test [2] (ABL1(H396P)-nonphosphorylated), 81%; in test [2] (ABL1(H396P)-phosphorylated), 94%; in test [3], 76%; in test [4], 89%. The remaining binding at 1 µM in test [5] turned out to be 79%; in test [6], 82%; in test [7], 71%; in test [8], 53%.
